Measured values taken from patent US8629143B2, “Potassium channel modulators” (AbbVie Inc., priority 2009, dated 2014).
pEC50: −log10 of the molar value.

Molecular target: T1, KCNQ 2/3 channels (HEK293 cells stably expressing human KCNQ2 and KCNQ3 subunits) (Homo sapiens, UniProt O43525+O43526)
T1 construct: expressed in transfected cells; host or cells: HEK293
Assay: KCNQ2/3 channel activation, thallium flux FLIPR assay with BTC-AM dye
Format: cell-based
Conditions: for Emax: HEK293, maximum response relative to the response produced by 10 μM retigabine (set at 100%), read-out: Max. %; for pEC50: HEK293 cells expressing human KCNQ2 and KCNQ3, thallium flux, FLIPR
In short: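 HEK293 cells stably expressing human KCNQ2/KCNQ3 were loaded with BTC-AM (3 μg/mL, 2 h, RT) and preincubated with compound for 4 min in pH 7.3 gluconate buffer containing 0.1 mM ouabain. Flux was triggered by 6 mM TlNO3/10 mM K2SO4 and read for 3 min; EC50 came from summed responses over basal, with maximum relative to 10 μM retigabine (100%).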

Emax [%] | pEC50 | SMILES
153 | 6.30 to 7.00 | O=C(CC12CC3CC(CC(C3)C1)C2)Nn1nc(-c2cccc(Cl)c2)c2ccccc2c1=O [Example 126, 2-(adamantan-1-yl)-N-[4-(3-chlorophenyl)-1-oxophthalazin-2(1H)-yl]acetamide]
101 | 6.30 to 7.00 | O=C(Cc1ccc(Cl)cc1)Nn1nc(-c2cccc(Cl)c2)c2ccccc2c1=O [Example 127, 2-(4-chlorophenyl)-N-[4-(3-chlorophenyl)-1-oxophthalazin-2(1H)-yl]acetamide]
140 | 6.30 to 7.00 | O=C(Cc1cc(F)cc(F)c1)Nn1nc(-c2cccc(Cl)c2)c2ccccc2c1=O [Example 128, N-[4-(3-chlorophenyl)-1-oxophthalazin-2(1H)-yl]-2-(3,5-difluorophenyl)acetamide]
143 | > 7.00 | O=C(C[C@@H]1C[C@@H]2CC[C@H]1C2)Nn1nc(-c2ccc(F)cc2)c2ccccc2c1=O [Example 129, 2-[(1S,2S,4R)-bicyclo[2.2.1]hept-2-yl]-N-[4-(4-fluorophenyl)-1-oxophthalazin-2(1H)-yl]acetamide]
156 | > 7.00 | O=C(C[C@@H]1C[C@@H]2C=C[C@H]1C2)Nn1nc(-c2ccc(F)cc2)c2ccccc2c1=O [Example 130, 2-[(1S,2S,4S)-bicyclo[2.2.1]hept-5-en-2-yl]-N-[4-(4-fluorophenyl)-1-oxophthalazin-2(1H)-yl]acetamide]
123 | 6.30 to 7.00 | O=C(Cc1ccc(Cl)cc1)Nn1nc(-c2ccc(F)cc2)c2ccccc2c1=O [Example 132, 2-(4-chlorophenyl)-N-[4-(4-fluorophenyl)-1-oxophthalazin-2(1H)-yl]acetamide]
144 | 6.30 to 7.00 | O=C(Cc1cc(F)cc(F)c1)Nn1nc(-c2ccc(F)cc2)c2ccccc2c1=O [Example 133, 2-(3,5-difluorophenyl)-N-[4-(4-fluorophenyl)-1-oxophthalazin-2(1H)-yl]acetamide]
95 | 6.30 to 7.00 | Cc1ccc(-c2nn(NC(=O)Cc3ccc(Cl)cc3)c(=O)c3ccccc23)cc1 [Example 135, 2-(4-chlorophenyl)-N-[4-(4-methylphenyl)-1-oxophthalazin-2(1H)-yl]acetamide]
130 | > 7.00 | Cc1ccc(-c2nn(NC(=O)Cc3cc(F)cc(F)c3)c(=O)c3ccccc23)cc1 [Example 136, 2-(3,5-difluorophenyl)-N-[4-(4-methylphenyl)-1-oxophthalazin-2(1H)-yl]acetamide]
95 | 6.30 to 7.00 | Cc1ccc(-c2nn(NC(=O)C[C@@H]3CC[C@H]4C[C@@H]3C4(C)C)c(=O)c3ccccc23)cc1 [Example 137, 2-[(1S,2S,5S)-6,6-dimethylbicyclo[3.1.1]hept-2-yl]-N-[4-(4-methylphenyl)-1-oxophthalazin-2(1H)-yl]acetamide]
129 | > 7.00 | Cc1ccc(-c2nn(NC(=O)CC34CC5CC(CC(C5)C3)C4)c(=O)c3ccccc23)cc1 [Example 138, 2-(adamantan-1-yl)-N-[4-(4-methylphenyl)-1-oxophthalazin-2(1H)-yl]acetamide]
20 | < 5.00 | O=C(CC1(C(F)(F)F)CCCC1)Nn1nc(Cc2ccccc2)c2ccccc2c1=O [Example 139, N-(4-benzyl-1-oxophthalazin-2(1H)-yl)-2-[1-(trifluoromethyl)cyclopentyl]acetamide]
126 | > 7.00 | CC(C)(CC(=O)Nn1nc(Cc2ccccc2)c2ccccc2c1=O)c1ccccc1 [Example 140, N-(4-benzyl-1-oxophthalazin-2(1H)-yl)-3-methyl-3-phenylbutanamide]
109 | > 7.00 | O=C(Cc1ccc(Cl)cc1)Nn1nc(Cc2ccccc2)c2ccccc2c1=O [Example 142, N-(4-benzyl-1-oxophthalazin-2(1H)-yl)-2-(4-chlorophenyl)acetamide]
128 | > 7.00 | O=C(Cc1cc(F)cc(F)c1)Nn1nc(Cc2ccccc2)c2ccccc2c1=O [Example 143, N-(4-benzyl-1-oxophthalazin-2(1H)-yl)-2-(3,5-difluorophenyl)acetamide]
101 | 6.30 to 7.00 | O=C(Cc1ccc(Cl)cc1)Nn1nc(Cc2ccc(Cl)cc2)c2ccccc2c1=O [Example 145, N-[4-(4-chlorobenzyl)-1-oxophthalazin-2(1H)-yl]-2-(4-chlorophenyl)acetamide]
83 | 6.30 to 7.00 | O=C(Cc1cc(F)cc(F)c1)Nn1nc(Cc2ccc(Cl)cc2)c2ccccc2c1=O [Example 146, N-[4-(4-chlorobenzyl)-1-oxophthalazin-2(1H)-yl]-2-(3,5-difluorophenyl)acetamide]
154 | 6.30 to 7.00 | O=C(C[C@@H]1C[C@@H]2CC[C@H]1C2)Nn1nc(-c2ccc(C(F)(F)F)cc2)c2ccccc2c1=O [Example 147, 2-[(1S,2S,4R)-bicyclo[2.2.1]hept-2-yl]-N-{1-oxo-4-[4-(trifluoromethyl)phenyl]phthalazin-2(1H)-yl}acetamide]
114 | 6.30 to 7.00 | CC(C)(CC(=O)Nn1nc(-c2ccc(C(F)(F)F)cc2)c2ccccc2c1=O)c1ccccc1 [Example 148, 3-methyl-N-{1-oxo-4-[4-(trifluoromethyl)phenyl]phthalazin-2(1H)-yl}-3-phenylbutanamide]
133 | > 7.00 | O=C(CC12CC3CC(CC(C3)C1)C2)Nn1nc(-c2ccc(C(F)(F)F)cc2)c2ccccc2c1=O [Example 149, 2-(adamantan-1-yl)-N-{1-oxo-4-[4-(trifluoromethyl)phenyl]phthalazin-2(1H)-yl}acetamide]
114 | 6.30 to 7.00 | COc1ccc(-c2nn(NC(=O)CC3CCC(C)CC3)c(=O)c3ccccc23)cc1 (stereo not shown) [Example 152, N-[4-(4-methoxyphenyl)-1-oxophthalazin-2(1H)-yl]-2-(4-methylcyclohexyl)acetamide]
143 | 6.00 to 6.30 | COc1ccc(-c2nn(NC(=O)Cc3cc(F)cc(F)c3)c(=O)c3ccccc23)cc1 [Example 153, 2-(3,5-difluorophenyl)-N-[4-(4-methoxyphenyl)-1-oxophthalazin-2(1H)-yl]acetamide]
136 | > 7.00 | COc1ccc(-c2nn(NC(=O)CC34CC5CC(CC(C5)C3)C4)c(=O)c3ccccc23)cc1 [Example 154, 2-(adamantan-1-yl)-N-[4-(4-methoxyphenyl)-1-oxophthalazin-2(1H)-yl]acetamide]
177 | 6.30 to 7.00 | Cc1ccc(C)c(-c2nn(NC(=O)CC34CC5CC(CC(C5)C3)C4)c(=O)c3ccccc23)c1 [Example 156, 2-(adamantan-1-yl)-N-[4-(2,5-dimethylphenyl)-1-oxophthalazin-2(1H)-yl]acetamide]
155 | 6.30 to 7.00 | Cc1ccc(C)c(-c2nn(NC(=O)Cc3ccc(Cl)cc3)c(=O)c3ccccc23)c1 [Example 157, 2-(4-chlorophenyl)-N-[4-(2,5-dimethylphenyl)-1-oxophthalazin-2(1H)-yl]acetamide]
167 | 6.30 to 7.00 | Cc1ccc(C)c(-c2nn(NC(=O)Cc3cc(F)cc(F)c3)c(=O)c3ccccc23)c1 [Example 158, 2-(3,5-difluorophenyl)-N-[4-(2,5-dimethylphenyl)-1-oxophthalazin-2(1H)-yl]acetamide]
